Data: US20210252008A1, “BIARYL COMPOSITIONS AND METHODS FOR MODULATING A KINASE CASCADE” (Athenex, Inc., priority 2004, published 2021)

Columns and labels:
[1] = target: CHK1(h) (Homo sapiens, UniProt O14757); assay: Inhibition of isolated kinases; format: biochemical; conditions: compound @ 10 μM
[2] = target: Abl(h) (Homo sapiens, UniProt P00519); assay: Inhibition of isolated kinases; format: biochemical; conditions: compound @ 10 μM
From the text: (§1) Table 5 illustrates percent activity of isolated kinases in the presence of the AstraZeneca ATP-competitive inhibitor (KX-328, AZ-28) or KX2-391 relative to control (untreated) isolated kinases.

[3] = target: EGFR(h) (Homo sapiens, UniProt P00533); assay: Inhibition of isolated kinases; format: biochemical; conditions: compound @ 10 μM
From the text: as §1

[4] = target: FGFR2(h) (Homo sapiens, UniProt P21802); assay: Inhibition of isolated kinases; format: biochemical; conditions: compound @ 10 μM
Chain of FGFR2(h) (P21802 22-821): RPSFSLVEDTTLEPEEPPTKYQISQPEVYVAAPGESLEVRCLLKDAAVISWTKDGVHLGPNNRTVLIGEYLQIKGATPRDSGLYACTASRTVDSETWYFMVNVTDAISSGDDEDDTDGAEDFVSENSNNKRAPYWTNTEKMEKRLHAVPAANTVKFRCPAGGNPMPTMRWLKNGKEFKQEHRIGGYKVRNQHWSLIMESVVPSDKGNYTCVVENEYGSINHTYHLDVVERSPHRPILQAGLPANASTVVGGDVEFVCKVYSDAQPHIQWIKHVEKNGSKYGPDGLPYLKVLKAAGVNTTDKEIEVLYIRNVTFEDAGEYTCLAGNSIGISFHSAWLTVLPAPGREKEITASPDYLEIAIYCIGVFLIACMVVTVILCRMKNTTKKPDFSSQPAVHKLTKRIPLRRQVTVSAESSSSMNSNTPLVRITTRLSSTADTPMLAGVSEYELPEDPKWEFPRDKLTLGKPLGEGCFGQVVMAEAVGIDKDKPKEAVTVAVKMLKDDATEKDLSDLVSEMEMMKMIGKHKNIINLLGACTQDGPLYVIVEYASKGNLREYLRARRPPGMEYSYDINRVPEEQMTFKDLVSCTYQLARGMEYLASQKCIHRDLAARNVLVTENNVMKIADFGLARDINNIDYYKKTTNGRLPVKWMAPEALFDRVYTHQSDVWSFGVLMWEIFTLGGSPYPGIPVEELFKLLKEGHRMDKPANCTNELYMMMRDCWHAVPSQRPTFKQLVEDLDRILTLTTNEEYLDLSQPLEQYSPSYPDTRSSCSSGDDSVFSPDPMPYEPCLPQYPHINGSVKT
From the text: as §1

[5] = target: Fyn(h) (Homo sapiens, UniProt P06241); assay: Inhibition of isolated kinases; format: biochemical; conditions: compound @ 10 μM
Chain of Fyn(h) (P06241 whole entry): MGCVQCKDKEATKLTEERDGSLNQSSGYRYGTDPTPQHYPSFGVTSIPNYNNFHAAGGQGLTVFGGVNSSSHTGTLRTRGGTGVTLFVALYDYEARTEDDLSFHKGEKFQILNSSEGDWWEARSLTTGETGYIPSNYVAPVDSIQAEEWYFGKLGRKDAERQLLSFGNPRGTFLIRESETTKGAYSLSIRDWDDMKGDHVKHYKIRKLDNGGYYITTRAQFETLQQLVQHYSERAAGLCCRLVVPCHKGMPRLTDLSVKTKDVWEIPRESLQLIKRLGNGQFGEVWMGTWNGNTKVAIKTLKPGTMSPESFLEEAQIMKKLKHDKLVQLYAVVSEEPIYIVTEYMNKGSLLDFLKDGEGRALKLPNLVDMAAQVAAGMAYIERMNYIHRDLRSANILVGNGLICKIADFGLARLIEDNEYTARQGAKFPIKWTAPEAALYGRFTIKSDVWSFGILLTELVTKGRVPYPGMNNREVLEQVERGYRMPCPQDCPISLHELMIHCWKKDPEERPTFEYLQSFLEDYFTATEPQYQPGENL
From the text: as §1

[6] = target: IGF-1R(h) (Homo sapiens, UniProt P08069); assay: Inhibition of isolated kinases; format: biochemical; conditions: compound @ 10 μM
From the text: as §1

[7] = target: IR(h) (Homo sapiens, UniProt P06213); assay: Inhibition of isolated kinases; format: biochemical; conditions: compound @ 10 μM
From the text: as §1

[8] = target: Lck(h) (Homo sapiens, UniProt P06239); assay: Inhibition of isolated kinases; format: biochemical; conditions: compound @ 10 μM
Chain of Lck(h) (P06239 whole entry): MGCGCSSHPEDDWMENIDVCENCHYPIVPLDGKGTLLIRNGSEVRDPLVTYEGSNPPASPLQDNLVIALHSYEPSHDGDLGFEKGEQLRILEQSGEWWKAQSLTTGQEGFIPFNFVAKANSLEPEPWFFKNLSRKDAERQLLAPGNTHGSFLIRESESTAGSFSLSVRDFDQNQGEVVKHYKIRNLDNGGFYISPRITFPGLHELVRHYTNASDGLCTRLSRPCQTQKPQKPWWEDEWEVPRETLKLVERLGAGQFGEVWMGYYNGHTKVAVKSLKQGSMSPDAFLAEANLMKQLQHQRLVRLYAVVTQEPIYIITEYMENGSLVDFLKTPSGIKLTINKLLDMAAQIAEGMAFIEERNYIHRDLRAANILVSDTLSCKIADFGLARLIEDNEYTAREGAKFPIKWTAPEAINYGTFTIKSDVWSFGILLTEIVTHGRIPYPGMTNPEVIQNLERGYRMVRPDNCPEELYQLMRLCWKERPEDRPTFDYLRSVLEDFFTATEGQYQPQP
From the text: as §1

[9] = target: Lyn(h) (Homo sapiens, UniProt P07948); assay: Inhibition of isolated kinases; format: biochemical; conditions: compound @ 10 μM
Chain of Lyn(h) (P07948 whole entry): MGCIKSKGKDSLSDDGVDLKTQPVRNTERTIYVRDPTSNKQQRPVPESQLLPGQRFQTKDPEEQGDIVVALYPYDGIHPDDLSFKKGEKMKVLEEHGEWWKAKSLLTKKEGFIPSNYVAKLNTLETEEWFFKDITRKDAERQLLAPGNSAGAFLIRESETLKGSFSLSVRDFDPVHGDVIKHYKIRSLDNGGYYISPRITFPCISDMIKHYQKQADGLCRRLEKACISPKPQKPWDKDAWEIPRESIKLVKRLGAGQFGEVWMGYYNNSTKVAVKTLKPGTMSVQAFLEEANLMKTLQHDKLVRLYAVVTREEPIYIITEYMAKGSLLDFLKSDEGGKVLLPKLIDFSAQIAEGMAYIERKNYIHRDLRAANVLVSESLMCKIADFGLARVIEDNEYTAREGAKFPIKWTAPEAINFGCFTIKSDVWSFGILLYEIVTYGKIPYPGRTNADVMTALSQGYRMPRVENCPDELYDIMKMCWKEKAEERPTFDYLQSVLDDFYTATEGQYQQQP
From the text: as §1

[10] = target: MAPK2(h) (Homo sapiens, UniProt P28482); assay: Inhibition of isolated kinases; format: biochemical; conditions: compound @ 10 μM
Chain of MAPK2(h) (P28482 whole entry): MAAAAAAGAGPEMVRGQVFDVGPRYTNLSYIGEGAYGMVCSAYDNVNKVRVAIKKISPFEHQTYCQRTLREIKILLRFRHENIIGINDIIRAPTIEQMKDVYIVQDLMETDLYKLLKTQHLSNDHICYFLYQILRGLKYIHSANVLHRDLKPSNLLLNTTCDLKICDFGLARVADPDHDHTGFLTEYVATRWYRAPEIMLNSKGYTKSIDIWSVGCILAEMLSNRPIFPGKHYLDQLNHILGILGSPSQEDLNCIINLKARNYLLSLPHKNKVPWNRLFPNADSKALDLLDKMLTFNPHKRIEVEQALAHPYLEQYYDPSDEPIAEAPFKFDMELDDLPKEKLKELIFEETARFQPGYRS
From the text: as §1

[11] = target: PDGFRβ(h) (Homo sapiens, UniProt P09619); assay: Inhibition of isolated kinases; format: biochemical; conditions: compound @ 10 μM
From the text: as §1

[12] = tested on: PI3 kinase; assay: Inhibition of isolated kinases; format: biochemical; conditions: compound @ 10 μM
From the text: as §1

[13] = target: PKCα(h) (Homo sapiens, UniProt P17252); assay: Inhibition of isolated kinases; format: biochemical; conditions: compound @ 10 μM
From the text: as §1

[14] = target: Pyk2(h) (Homo sapiens, UniProt Q14289); assay: Inhibition of isolated kinases; format: biochemical; conditions: compound @ 10 μM
Chain of Pyk2(h) (Q14289 whole entry): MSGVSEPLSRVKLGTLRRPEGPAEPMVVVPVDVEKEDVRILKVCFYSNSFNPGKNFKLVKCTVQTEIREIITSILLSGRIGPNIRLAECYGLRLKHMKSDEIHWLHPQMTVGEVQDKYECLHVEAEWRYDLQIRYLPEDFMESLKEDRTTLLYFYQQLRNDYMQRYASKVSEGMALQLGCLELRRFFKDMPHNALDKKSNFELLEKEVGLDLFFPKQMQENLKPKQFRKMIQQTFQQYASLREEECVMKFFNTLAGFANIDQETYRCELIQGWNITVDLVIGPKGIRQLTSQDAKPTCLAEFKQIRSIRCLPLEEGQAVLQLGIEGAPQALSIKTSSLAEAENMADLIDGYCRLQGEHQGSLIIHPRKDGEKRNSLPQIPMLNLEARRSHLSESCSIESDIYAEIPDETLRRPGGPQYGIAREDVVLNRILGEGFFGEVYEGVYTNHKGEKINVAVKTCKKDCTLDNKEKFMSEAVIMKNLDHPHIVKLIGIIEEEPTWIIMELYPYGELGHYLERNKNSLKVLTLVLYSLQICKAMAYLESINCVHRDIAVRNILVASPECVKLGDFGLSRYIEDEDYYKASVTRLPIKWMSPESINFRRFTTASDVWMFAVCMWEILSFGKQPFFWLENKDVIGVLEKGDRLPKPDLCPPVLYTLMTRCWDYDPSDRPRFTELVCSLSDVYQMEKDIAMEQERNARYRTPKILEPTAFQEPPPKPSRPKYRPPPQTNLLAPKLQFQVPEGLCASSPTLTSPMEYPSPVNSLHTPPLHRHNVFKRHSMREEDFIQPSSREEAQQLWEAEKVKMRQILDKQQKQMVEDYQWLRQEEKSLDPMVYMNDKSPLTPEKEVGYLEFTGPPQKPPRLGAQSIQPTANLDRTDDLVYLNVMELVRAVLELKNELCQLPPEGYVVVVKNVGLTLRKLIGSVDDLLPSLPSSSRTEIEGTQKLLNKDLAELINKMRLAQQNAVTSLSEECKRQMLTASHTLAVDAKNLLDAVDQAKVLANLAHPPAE
From the text: as §1

[15] = target: Yes(h) (Homo sapiens, UniProt P07947); assay: Inhibition of isolated kinases; format: biochemical; conditions: compound @ 10 μM
From the text: as §1

[16] = target: ZAP-70(h) (Homo sapiens, UniProt P43403); assay: Inhibition of isolated kinases; format: biochemical; conditions: compound @ 10 μM
Chain of ZAP-70(h) (P43403 whole entry): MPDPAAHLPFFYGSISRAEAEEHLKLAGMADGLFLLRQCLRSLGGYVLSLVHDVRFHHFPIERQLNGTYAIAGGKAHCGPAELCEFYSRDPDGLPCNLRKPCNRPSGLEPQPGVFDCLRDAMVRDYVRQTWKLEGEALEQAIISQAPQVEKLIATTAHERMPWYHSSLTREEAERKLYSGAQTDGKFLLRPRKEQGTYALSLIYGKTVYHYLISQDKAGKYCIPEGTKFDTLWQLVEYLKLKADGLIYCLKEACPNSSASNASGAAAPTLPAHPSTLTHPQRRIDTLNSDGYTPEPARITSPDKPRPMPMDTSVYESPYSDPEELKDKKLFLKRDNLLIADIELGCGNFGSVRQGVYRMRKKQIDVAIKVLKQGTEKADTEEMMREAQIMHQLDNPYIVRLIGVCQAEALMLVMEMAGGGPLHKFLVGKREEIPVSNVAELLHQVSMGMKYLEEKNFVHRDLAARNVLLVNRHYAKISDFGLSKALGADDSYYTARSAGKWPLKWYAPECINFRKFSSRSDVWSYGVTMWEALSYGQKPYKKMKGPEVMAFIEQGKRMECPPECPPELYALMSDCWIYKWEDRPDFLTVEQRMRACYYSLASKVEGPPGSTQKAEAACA
From the text: as §1

[17] = tested on: FAK Tyr 925; assay: Intracellular phosphorylation levels: FAK Tyr 925; format: cell-based; conditions: c-Src/NIH-3T3 and HT-29 cells; FIG. 2
Protocol: (§2) HT29 (colon cancer) and c-Src527F/NIH-3T3 (Src transformed) cell lines were treated with KX2-391 or with AstraZeneca's ATP competitive Src inhibitor AZ28. AZ28 serves as a positive comparator to show what a validated Src inhibitor should do in these assays. After treatment with compound, cells were lysed, subjected to PAGE and probed with a battery of antibodies. […] In addition, off-target protein phosphorylation was also investigated. Further, induction of apoptosis was evaluated via Caspase 3 cleavage. Multiple doses of each compound were tested because the trends in response to increasing drug concentration are the most reliable indicator of activity.
(§3) The same range of multiples of the GI50 for AZ28 in these two cell lines was run as a comparison.

[18] = tested on: She Y239/240; assay: Intracellular phosphorylation levels: She Y239/240; format: cell-based; conditions: c-Src/NIH-3T3 and HT-29 cells; FIG. 3
Protocol: as §2, §3

[19] = tested on: Paxillin Y-31; assay: Intracellular phosphorylation levels: Paxillin Y-31; format: cell-based; conditions: c-Src/NIH-3T3 cells; FIG. 4
Protocol: as §2, §3
Note: paxillin Y-31 was not detected in HT29 cells with or without added drug.

[20] = tested on: PDGF receptor tyrosine kinase Y572/574; assay: PDGF receptor autophosphorylation in cells; format: cell-based; conditions: c-Src/NIH-3T3 cells; FIG. 7
Protocol: as §2, §3
This is thought not to be a direct Src substrate in cells.

[21] = tested on: FAK Y397; assay: FAK autophosphorylation in cells; format: cell-based; conditions: c-Src527F/NIH3T3 cells; FIG. 8
Protocol: as §2, §3
FAK Y397 is mainly a FAK autophosphorylation site and only a poor Src transphorylation site. AZ28 is […] FAK inhibitor (see isolated enzyme data in Table 5). However, no inhibition of FAK autophosphorylation in c-Src527F/NIH3T3 cells is seen with KX-391.

percent activity of isolated kinase relative to control (untreated) [1]: 105%
percent activity of isolated kinase relative to control (untreated) [2]: 120%
percent activity of isolated kinase relative to control (untreated) [3]: 134%
percent activity of isolated kinase relative to control (untreated) [4]: 94%
percent activity of isolated kinase relative to control (untreated) [5]: 85%
percent activity of isolated kinase relative to control (untreated) [6]: 101%
percent activity of isolated kinase relative to control (untreated) [7]: 112%
percent activity of isolated kinase relative to control (untreated) [8]: 109%
percent activity of isolated kinase relative to control (untreated) [9]: 113%
percent activity of isolated kinase relative to control (untreated) [10]: 112%
percent activity of isolated kinase relative to control (untreated) [11]: 110%
percent activity of isolated kinase relative to control (untreated) [12]: 100%
percent activity of isolated kinase relative to control (untreated) [13]: 111%
percent activity of isolated kinase relative to control (untreated) [14]: 97%
percent activity of isolated kinase relative to control (untreated) [15]: 92%
percent activity of isolated kinase relative to control (untreated) [16]: 108%
Structure (SMILES): O=C(Cc1ccc(-c2ccc(OCCN3CCOCC3)cc2)cn1)NCc1ccccc1 [KX2-391]
phosphorylation of FAK Tyr 925 (Src trans-phosphorylation) [17]: inhibited
phosphorylation of She Y239/240 (Src trans-phosphorylation) [18]: inhibited
phosphorylation of Paxillin Y-31 (Src trans-phosphorylation) [19]: inhibited
PDGF receptor autophosphorylation (Y572/574) [20]: Some effect
FAK autophosphorylation (Y397) [21]: no inhibition
